# Measured values taken from patent US20220331274A1, “METHODS OF TREATING CANCER” (Inspirna, Inc., priority 2019, published 2022).
# pIC50: −log10 of the molar value.
# Legend:
# BCRP = BCRP (Homo sapiens, UniProt Q9UNQ0); assay: efflux transporter inhibition in vitro; assay type: in vitro ADME; conditions: read-out: inhibition of BCRP transport
# 2B6 = 2B6 (Homo sapiens, UniProt P20813); assay: in vitro CYP450 inhibition; assay type: in vitro ADME
# 2E1 = 2E1 (Homo sapiens, UniProt P05181); assay: in vitro CYP450 inhibition; assay type: in vitro ADME
# 3A4 = 3A4 (Homo sapiens, UniProt P08684); assay: in vitro CYP450 inhibition; assay type: in vitro ADME
# 3A4, sequence (P08684 whole entry): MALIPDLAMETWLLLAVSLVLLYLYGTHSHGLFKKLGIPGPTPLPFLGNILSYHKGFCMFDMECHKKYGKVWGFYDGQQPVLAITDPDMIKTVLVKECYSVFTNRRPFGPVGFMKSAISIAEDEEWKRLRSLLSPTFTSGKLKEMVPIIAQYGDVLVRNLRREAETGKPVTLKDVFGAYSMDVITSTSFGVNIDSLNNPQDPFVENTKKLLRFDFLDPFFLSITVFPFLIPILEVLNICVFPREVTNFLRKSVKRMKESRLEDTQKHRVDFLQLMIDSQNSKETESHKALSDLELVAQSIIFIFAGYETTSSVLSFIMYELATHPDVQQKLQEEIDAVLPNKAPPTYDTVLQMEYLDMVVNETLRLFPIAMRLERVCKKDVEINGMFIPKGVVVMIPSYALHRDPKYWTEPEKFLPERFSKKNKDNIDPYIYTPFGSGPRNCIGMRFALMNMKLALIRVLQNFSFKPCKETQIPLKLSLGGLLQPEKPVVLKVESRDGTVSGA
# CYP2C19 = CYP2C19 (Homo sapiens, UniProt P33261); assay: in vitro CYP metabolism; assay type: in vitro ADME
# OATP1B3 = OATP1B3 (Homo sapiens, UniProt Q9NPD5); assay: uptake transporter inhibition in vitro; assay type: in vitro ADME
# cancer cells = assay: cancer cell invasion in vitro; assay type: cell-based
# [1] = biological target: human ether-n-go-go-related gene (hERG) channel (Homo sapiens, UniProt Q12809); assay: in vitro hERG assay; assay type: cell-based
# human ether-n-go-go-related gene (hERG) channel, sequence (Q12809 whole entry): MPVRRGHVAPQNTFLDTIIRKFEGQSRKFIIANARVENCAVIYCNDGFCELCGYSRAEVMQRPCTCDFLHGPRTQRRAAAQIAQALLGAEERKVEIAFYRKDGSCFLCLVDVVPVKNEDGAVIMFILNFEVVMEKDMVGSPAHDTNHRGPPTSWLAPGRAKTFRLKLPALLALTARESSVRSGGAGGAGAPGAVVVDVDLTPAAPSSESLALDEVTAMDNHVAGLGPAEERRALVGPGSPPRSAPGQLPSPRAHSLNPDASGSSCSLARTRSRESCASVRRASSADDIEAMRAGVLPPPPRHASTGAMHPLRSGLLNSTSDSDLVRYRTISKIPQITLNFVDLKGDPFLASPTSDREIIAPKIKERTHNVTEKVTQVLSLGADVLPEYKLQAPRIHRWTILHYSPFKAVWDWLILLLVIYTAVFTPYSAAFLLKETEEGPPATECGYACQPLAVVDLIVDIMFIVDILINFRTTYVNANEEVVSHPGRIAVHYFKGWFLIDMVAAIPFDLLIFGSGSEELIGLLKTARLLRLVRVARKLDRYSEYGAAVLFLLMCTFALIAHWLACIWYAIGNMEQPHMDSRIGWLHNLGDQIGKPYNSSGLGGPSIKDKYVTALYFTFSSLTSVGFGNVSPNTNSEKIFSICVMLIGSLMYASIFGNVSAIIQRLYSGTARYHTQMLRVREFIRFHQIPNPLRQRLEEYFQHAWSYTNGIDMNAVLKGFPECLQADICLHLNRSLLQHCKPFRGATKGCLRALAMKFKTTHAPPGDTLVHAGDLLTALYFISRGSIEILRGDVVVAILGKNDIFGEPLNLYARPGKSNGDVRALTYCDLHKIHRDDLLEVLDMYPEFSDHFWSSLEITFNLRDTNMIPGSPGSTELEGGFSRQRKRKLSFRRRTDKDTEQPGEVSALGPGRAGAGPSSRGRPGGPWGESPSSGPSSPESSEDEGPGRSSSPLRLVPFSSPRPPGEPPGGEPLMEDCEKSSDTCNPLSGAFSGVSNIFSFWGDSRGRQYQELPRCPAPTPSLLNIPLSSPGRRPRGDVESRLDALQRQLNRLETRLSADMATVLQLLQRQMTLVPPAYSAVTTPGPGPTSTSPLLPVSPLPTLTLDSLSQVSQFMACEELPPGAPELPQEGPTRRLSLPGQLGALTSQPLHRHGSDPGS
# MDSCs = assay: reduction of MDSCs in circulation and in tumors; assay type: in vivo
# CYP2E1 = CYP2E1 (Homo sapiens, UniProt P05181); assay: in vitro CYP metabolism; assay type: in vitro ADME
# 1A1 = 1A1 (Homo sapiens, UniProt P04798); assay: in vitro CYP450 inhibition; assay type: in vitro ADME
# 1A1, sequence (P04798 whole entry): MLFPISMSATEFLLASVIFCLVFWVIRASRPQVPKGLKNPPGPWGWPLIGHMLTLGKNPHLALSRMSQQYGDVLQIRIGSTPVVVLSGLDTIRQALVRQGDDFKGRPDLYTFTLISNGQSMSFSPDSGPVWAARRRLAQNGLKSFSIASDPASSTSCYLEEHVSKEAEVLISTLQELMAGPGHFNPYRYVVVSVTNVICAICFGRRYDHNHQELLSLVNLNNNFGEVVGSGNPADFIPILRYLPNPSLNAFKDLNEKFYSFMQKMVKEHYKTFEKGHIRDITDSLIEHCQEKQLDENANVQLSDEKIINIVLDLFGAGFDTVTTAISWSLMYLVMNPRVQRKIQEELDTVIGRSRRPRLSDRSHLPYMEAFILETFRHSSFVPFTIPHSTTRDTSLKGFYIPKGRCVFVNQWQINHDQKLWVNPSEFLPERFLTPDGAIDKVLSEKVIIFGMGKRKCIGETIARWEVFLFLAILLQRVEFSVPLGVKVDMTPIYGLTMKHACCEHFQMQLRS
# ApoE [2] = assay: ApoE gene expression induction in cancer cells; assay type: cell-based; conditions: compared to control cells
# CYP2C9 = CYP2C9 (Homo sapiens, UniProt P11712); assay: in vitro CYP metabolism; assay type: in vitro ADME
# CYP2C9, sequence (P11712 whole entry): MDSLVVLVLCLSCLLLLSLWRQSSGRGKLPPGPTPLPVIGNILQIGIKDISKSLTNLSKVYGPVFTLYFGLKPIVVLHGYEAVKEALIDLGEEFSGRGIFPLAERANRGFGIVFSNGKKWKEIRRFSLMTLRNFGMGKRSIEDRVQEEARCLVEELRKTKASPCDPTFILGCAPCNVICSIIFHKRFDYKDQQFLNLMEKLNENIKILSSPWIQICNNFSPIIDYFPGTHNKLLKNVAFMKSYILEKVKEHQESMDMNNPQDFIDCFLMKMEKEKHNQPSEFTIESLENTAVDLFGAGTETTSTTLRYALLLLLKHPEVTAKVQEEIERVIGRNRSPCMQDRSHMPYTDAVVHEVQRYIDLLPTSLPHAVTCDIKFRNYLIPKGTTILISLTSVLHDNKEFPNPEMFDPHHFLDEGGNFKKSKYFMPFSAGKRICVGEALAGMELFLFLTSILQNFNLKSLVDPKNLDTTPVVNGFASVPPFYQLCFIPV
# [3] = biological target: organic anion transporting polypeptide (OATP) 1B1 (Homo sapiens, UniProt Q9Y6L6); assay: uptake transporter inhibition in vitro; assay type: in vitro ADME; conditions: read-out: IC50 OATP1B1
# organic anion transporting polypeptide (OATP) 1B1, sequence (Q9Y6L6 whole entry): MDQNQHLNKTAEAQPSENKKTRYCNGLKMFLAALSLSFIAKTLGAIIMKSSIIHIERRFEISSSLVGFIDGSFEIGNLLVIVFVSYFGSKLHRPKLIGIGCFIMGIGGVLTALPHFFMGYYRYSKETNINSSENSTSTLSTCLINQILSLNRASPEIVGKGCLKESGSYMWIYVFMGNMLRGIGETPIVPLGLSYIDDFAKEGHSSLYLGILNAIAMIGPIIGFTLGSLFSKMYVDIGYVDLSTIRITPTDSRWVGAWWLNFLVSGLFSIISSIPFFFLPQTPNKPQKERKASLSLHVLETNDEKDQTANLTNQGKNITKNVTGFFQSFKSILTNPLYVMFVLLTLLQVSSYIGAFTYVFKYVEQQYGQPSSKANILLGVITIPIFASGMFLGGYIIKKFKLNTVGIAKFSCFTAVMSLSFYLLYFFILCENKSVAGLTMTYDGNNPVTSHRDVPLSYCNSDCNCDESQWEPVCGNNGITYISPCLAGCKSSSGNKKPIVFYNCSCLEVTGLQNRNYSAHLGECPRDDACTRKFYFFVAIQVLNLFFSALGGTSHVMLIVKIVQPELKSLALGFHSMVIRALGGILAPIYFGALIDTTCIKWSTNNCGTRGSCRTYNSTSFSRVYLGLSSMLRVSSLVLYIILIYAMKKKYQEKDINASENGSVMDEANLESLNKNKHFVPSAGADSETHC
# [4] = Example 1: adverse event profile of full and reduced regimens with docetaxel; assay type: in vivo
# Procedure: Protocol: Three subjects was administered Regimen 1 (Full): 35 mg/m^2 of docetaxel on days 1, 8, and 15 of every 28-day cycle and 80 mg of 2-[3-[(3R)-3-[[2-chloro-3-(trifluoromethyl)phenyl]methyl-(2,2-diphenylethyl)amino]butoxy]phenyl]acetic acid twice per day daily throughout treatment. Seven subjects was administered Regimen 2 (Reduced): 28 mg/m^2 of docetaxel on days 1, 8, and 15 of every 28-day cycle and 80 mg of 2-[3-[(3R)-3-[[2-chloro-3-(trifluoromethyl)phenyl]methyl-(2,2-diphenylethyl)amino]butoxy]phenyl]acetic acid twice per day for five continuous days followed by a 2 day rest period throughout treatment. One subject that was administered Regimen 2 received 35 mg/m^2 of docetaxel on days 1 and 80 mg of 2-[3-[(3R)-3-[[2-chloro-3-(trifluoromethyl)phenyl]methyl-(2,2-diphenylethyl)amino]butoxy]phenyl]acetic acid twice per day for the first seven days of treatment prior to switching to the reduced treatment schedule for the remainder of the 28-day cycle.
# CYP2B6 = assay: CYP induction in primary cultures of cryopreserved hepatocytes; assay type: in vitro ADME
# CYP2C8 = CYP2C8 (Homo sapiens, UniProt P10632); assay: in vitro CYP450 inhibition; assay type: in vitro ADME; conditions: read-out: 50% inhibitory concentration [IC50] CYP2C8
# CYP2C8, sequence (P10632 whole entry): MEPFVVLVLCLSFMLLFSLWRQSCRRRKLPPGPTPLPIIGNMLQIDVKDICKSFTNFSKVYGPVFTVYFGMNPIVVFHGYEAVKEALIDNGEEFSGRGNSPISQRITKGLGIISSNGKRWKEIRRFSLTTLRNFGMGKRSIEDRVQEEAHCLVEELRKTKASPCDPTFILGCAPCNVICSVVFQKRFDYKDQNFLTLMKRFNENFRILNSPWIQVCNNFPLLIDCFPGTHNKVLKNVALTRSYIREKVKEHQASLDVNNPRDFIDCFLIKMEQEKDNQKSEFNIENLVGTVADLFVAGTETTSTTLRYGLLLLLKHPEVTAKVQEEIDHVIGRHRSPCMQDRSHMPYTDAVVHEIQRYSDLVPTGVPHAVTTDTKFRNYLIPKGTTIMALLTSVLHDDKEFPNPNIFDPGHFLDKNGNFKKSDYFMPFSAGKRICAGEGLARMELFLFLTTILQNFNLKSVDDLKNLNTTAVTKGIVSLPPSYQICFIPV
# melanoma xenograft = melanoma xenograft study in non-obese diabetic-severe combined immunodeficiency mice; assay type: in vivo; conditions: 25 mg/kg
# ApoE [5] = assay: ApoE gene expression induction in hPBMCs; assay type: cell-based, human; conditions: compared to control cells
# tumor growth = tumor growth studies, minimum efficacious dose and exposure; assay type: in vivo
# [6] = Regimen 1 (Full): 80 mg twice per day daily + docetaxel 35 mg/m^2, 3 cycles
# [7] = Regimen 2 (Reduced): 80 mg twice per day 5 days then 2 day rest + docetaxel 28 mg/m^2, 20 cycles
# 2B6, sequence (P20813 whole entry): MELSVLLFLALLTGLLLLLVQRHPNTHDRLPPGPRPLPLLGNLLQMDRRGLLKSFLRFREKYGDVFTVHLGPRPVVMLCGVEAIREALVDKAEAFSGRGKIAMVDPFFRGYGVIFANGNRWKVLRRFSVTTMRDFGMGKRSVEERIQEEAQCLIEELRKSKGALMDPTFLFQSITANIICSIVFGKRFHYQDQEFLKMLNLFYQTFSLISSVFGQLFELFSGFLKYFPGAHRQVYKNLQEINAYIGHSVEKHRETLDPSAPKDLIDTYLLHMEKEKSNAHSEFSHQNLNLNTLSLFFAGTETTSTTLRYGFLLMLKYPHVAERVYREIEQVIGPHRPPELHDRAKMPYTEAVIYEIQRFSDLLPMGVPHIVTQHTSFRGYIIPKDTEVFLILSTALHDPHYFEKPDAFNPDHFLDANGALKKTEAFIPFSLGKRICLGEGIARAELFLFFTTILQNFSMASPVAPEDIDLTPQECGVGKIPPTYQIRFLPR
# BCRP, sequence (Q9UNQ0 whole entry, species assumed): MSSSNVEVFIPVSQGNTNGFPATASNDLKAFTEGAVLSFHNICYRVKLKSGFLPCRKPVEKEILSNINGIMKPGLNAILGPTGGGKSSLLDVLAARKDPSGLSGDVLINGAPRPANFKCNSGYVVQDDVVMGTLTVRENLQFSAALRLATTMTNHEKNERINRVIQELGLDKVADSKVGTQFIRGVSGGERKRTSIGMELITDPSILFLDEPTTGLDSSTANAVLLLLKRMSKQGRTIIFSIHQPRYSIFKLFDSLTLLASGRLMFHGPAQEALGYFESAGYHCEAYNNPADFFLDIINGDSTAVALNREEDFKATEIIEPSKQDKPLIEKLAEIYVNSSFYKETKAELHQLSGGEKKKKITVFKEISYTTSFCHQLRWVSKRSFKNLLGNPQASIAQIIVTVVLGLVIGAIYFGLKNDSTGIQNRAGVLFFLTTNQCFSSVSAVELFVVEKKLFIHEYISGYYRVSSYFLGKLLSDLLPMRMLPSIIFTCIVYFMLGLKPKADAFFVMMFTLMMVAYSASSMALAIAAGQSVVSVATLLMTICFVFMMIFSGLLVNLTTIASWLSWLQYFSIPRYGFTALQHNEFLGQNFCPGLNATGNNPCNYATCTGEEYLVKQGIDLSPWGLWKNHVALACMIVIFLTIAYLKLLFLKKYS
compound,measurement,setting,value
"C[C@H](CCOc1cccc(CC(=O)O)c1)N(Cc1cccc(C(F)(F)F)c1Cl)CC(c1ccccc1)c1ccccc1 [2-[3-[(3R)-3-[[2-chloro-3-(trifluoromethyl)phenyl]methyl-(2,2-diphenylethyl)amino]butoxy]phenyl]acetic acid]",inhibition at 5 µM,BCRP,55%
same,pIC50,2B6,4.82
same,inhibition of 2E1,2E1,very weakly inhibited
same,inhibition of 3A4,3A4,very weakly inhibited
same,substrate for CYP2C19,CYP2C19,a substrate
same,pIC50,OATP1B3,5.43
same,suppression of cancer cell invasion,cancer cells,~45%
same,hERG channel conductance,[1],"significant increase, but not inhibition"
same,reduction of MDSCs in circulation,MDSCs; in circulation,~40%
same,reduction of MDSCs in tumors,MDSCs; in tumors,> 60%
same,substrate for CYP2E1,CYP2E1,a substrate
same,inhibition of 1A1,1A1,very weakly inhibited
same,ApoE gene expression induction,ApoE [2],3 fold
same,substrate for CYP2C9,CYP2C9,a substrate
same,pIC50,[3],7.00
same,"Decreased white blood cell count (All grades), AE/Cycle %",[4]; [6],67%
same,"Neutropenia (All grades), AE/Cycle %",[4]; [6],67%
same,"Decreased white blood cell count (All grades), number of AEs","[4]; Regimen 1 (Full): 80 mg twice per day daily + docetaxel 35 mg/m^2, 3 subjects, 3 cycles",2
same,"Neutropenia (All grades), number of AEs","[4]; Regimen 1 (Full): 80 mg twice per day daily + docetaxel 35 mg/m^2 days 1, 8, 15 of 28-day cycle, 3 subjects, 3 cycles",2
same,"Decreased white blood cell count (All grades), number of AEs","[4]; Regimen 2 (Reduced): 80 mg twice per day 5 days then 2 day rest + docetaxel 28 mg/m^2, 7 subjects, 20 cycles",4
same,"Decreased white blood cell count (All grades), AE/Cycle %",[4]; [7],20%
same,"Neutropenia (All grades), AE/Cycle %",[4]; [7],5%
same,"Neutropenia (All grades), number of AEs","[4]; Regimen 2 (Reduced): 80 mg twice per day 5 days then 2 day rest + docetaxel 28 mg/m^2 days 1, 8, 15, 7 subjects, 20 cycles",1
same,adverse event in one Regimen 2 subject,"[4]; one subject: docetaxel 35 mg/m^2 day 1 and 80 mg twice per day first seven days, then reduced schedule",grade 1 white blood cell decrease
same,CYP2B6 induction,CYP2B6; 1 concentration in ⅓ donors,> 2 fold
same,potential to induce CYP2B6,CYP2B6; cryopreserved hepatocytes,cannot be ruled out
same,pIC50,CYP2C8,5.12
same,growth of the xenograft,melanoma xenograft,significantly inhibited growth of the xenograft
same,ApoE gene expression induction,ApoE [5],up to 40 fold
same,exposures at minimum efficacious doses,tumor growth; 25-40 mg/kg/day PO,"10,000-50,000 ng-h/mL"
same,minimum efficacious doses,tumor growth; administered orally (PO),25 to 40 mg/kg/day
